From article PMC10689823, “Discovery of a Drug-like, Natural Product-Inspired DCAF11 Ligand Chemotype” (Nature Communications, 2023)

Key:
DCAF11 [1] = biological target: T1, DCAF11 (Homo sapiens, UniProt Q8TEB1); assay: In-gel fluorescence labelling of purified DCAF11; format: binding; details: purified DCAF11 pretreated with compound 2 for 40 min, then 18 for 40 min
Experimental: Purified DCAF11 protein (1 μg, Origene, TP760719) was diluted in PBS buffer that is mixed with compound 2 or BODIPY derivative 18 at the indicated concentration at room temperature. Samples were diluted with 5 × SDS sample loading buffer and heated at 95 °C for 5 min. Proteins were separated using SDS-PAGE and were visualized using the ChemiDoc MP Imaging System (BIO-RAD) at 488 nm and the results were analyzed by Image Lab (BIORAD).

Hep G2 cells = assay: Cell viability assay (CellTiter-Glo) in Hep G2 cells; format: cell-based; details: Homo sapiens, HepG2, 72 h
Experimental: Jurkat cells (3 × 10^3) and Hep G2 cells (3.5 × 10^3) were seeded in 96-well plates in 100 μL culture medium. Cells were treated with compounds dissolved in 50 μl medium at the indicated concentration for 72 h, at the same time, one plate of cells without compounds treatment was used for the cell count at time zero. After adding 40 μl of CellTiter-Glo® reagent (Promega, G7571) to each well for 10 min at room temperature, the luminescence was measured on a Spark® Multimode Microplate Reader (Tecan). The data was analyzed by the GraphPad Prism 9.0.

PDEδ = PDEδ (Homo sapiens, UniProt O43924); assay: PDEδ levels by Western blot in Jurkat cells; format: cell-based; set-up: endogenous in cells; host or cells: Jurkat; details: 10 μM, 6 h
DCAF11 [2] = biological target: T1, DCAF11; assay: Affinity-based enrichment (biotin-streptavidin pulldown) in Hep G2 cells overexpressing HA-DCAF11; format: binding; set-up: host or cells: Hep G2; details: 100 μM compound 2 pretreatment for 1 h
Experimental: Hep G2 cells (1 × 10^6 cells/well) were seeded in 6-well plates and incubated for 24 h. On the next day, the cells were transfected with 1 µg pCMV3-N-HA-DCAF11 plasmid (Sino Biological, HG16257-NY) or 1 µg empty vector (pcDNA3.1(+), Thermo Fisher, V79020) and 2.5 µL FuGENE® HD transfection reagent (Promega, E2311) per well. The cells were incubated for 48 h prior to treatment with 100 μM compound 2 for 1 h. […] The cells were washed with ice-cold PBS, then lysed in lysis buffer (150 mM sodium chloride, 1% NP-40, 50 mM TRIS-HCl, pH 8.0 with complete protease inhibitor cocktail (Roche, 11836170001)) for 30 min on ice. After centrifugation at 16,000 x g, the supernatant was transferred into a new tube and the protein concentration was determined using the DC protein assay (BIO-RAD, 5000116).
The supernatant was discarded and 1 mg of lysate in 500 µL lysis buffer was added to the beads and incubated for 1 h at room temperature with overhead rotation. The beads were washed twice with 500 µL washing buffer (50 mM PIPES (pH 7.4), 50 mM NaCl, 75 mM MgCl2, 5 mM EGTA, 0.1% NP-40, 0.1% Triton X-100, 0.1% Tween20) and twice with PBS for 10 min each at room temperature with overhead rotation. Enriched proteins were eluted by boiling of the beads at 95 °C for 5 min in 20 µL of a supersaturated (25 mM) biotin solution and visualized by Western Blotting as described above.

BRD4 = biological target: T2, BRD4 (Homo sapiens, UniProt O60885); assay: BRD4 levels by Western blot in Jurkat cells; format: cell-based; details: for degradation of BRD4: 3 µM, 6 h treatment
T2 construct: endogenous in cells; host or cells: Jurkat
Experimental: (§1) Cells were washed with PBS and lysed in lysis buffer (50 mM Tris-HCl, pH 7.4, 150 mM NaCl, 1% Triton X-100, 1% sodium deoxycholate, 0.1% SDS) with complete protease inhibitor cocktail (Roche, 11836170001) for 30 min on ice. For Ramos cells, cell pellets were lysed in lysis buffer (50 mM Tris-HCl, pH 8, 150 mM NaCl, 1% NP-40, 0.5% sodium deoxycholate) with complete protease inhibitor cocktail. After centrifugation at 16,000 x g, the supernatant was transferred into a new tube and the protein concentration was determined by DC protein assay (BIO-RAD, 5000116). Proteins were separated by SDS-PAGE and transferred to a PVDF membrane (Thermo scientific, 0.45 μm, 88518). For PDEδ, BRD2, GAPDH, BRD4, Vinculin and BTK, the membranes were blocked with Intercept® Blocking Buffer (LI-COR Biosciences, 927-70001) at room temperature for 1 h. The primary antibodies for these proteins were diluted with Intercept® Blocking Buffer (1:500 for PDEδ, 1:3000 for Vinculin, and 1:1000 for other proteins) and incubated with the membranes overnight at 4 °C. Membranes were washed with PBS + 0.1% Tween 20 (PBS-T) five times and incubated with secondary antibodies conjugated to IRDye® Infrared Fluorescent Dyes (1:5000, LI-COR Biosciences) at room temperature for 1 h with protection from light. After washing the membrane, signals were visualized using the ChemiDoc MP Imaging System (BIO-RAD Laboratories). For detection of LC3B, BRD3, BLK, DCAF11, DDB1 RBX1, FIP200, V5- and FLAG-Tag the membranes were blocked with 5% milk in PBS-T at room temperature for 1 h. The primary antibodies for these proteins were diluted in 5% milk in PBS-T buffer (1:200 for BRD3, 1:1000 for other proteins) and incubated with the membranes overnight at 4 °C. Membranes were washed with PBS-T five times and incubated with HRP secondary antibodies (1:1500) at room temperature for 1 h. After washing the membrane, protein detection was performed using Western blotting detection reagent (Thermo Scientific, 34095) and the ChemiDoc MP Imaging System (BIO-RAD). Relative band intensities were quantified using Image Lab (BIO-RAD).

BRD2 and DCAF11 = biological target: T3, BRD2 and DCAF11 (Homo sapiens, UniProt P25440+Q8TEB1); assay: Co-immunoprecipitation of FLAG-BRD2 and HA-DCAF11 in Hep G2 cells; format: cell-based; details: MG-132 10 μM, 40 min, compound 10 μM
T3 construct: expressed in transfected cells; host or cells: Hep G2
Experimental: Hep G2 cells were seeded in 6-well plates, 24 h later, cells were transiently transfected with HA-DCAF11 (Sino Biological, HG16257-NY) and FLAG-BRD2 for 48 h using the FuGENE® HD transfection reagent (Promega, E2311). […] After determination of the protein concentration, cell lysates were incubated with anti-FLAG magnetic beads (30 μl / sample, Sigma, M8823) at 4 °C for 4 h and washed three times with washing buffer (0.2% NP-40, 25 mM Tris-HCl pH 7.4, 150 mM NaCl). The beads were diluted with PBS, mixed with SDS sample buffer and heated at 95 °C for 10 min, followed by western blot analysis.

BRD2 = BRD2 (Homo sapiens, UniProt P25440); assay: BRD2 levels by Western blot in Hep G2 and MDA-MB-231 cells (incl. RNA interference); format: cell-based; set-up: endogenous in cells; host or cells: Hep G2; MDA-MB-231
Experimental: as §1

Row | degradation of BRD4 (BRD4) | hook effect for BRD4 (BRD4; 6 h, up to 50 µM concentration) | BRD2 depletion in Hep G2 and MDA-MB-231 cells (BRD2; 4 h) | Compound | competition of DCAF11 labelling by 18 (DCAF11 [1]) | GI50 (Hep G2 cells) | PDEδ protein levels, ligands alone or in combination (PDEδ) | competition of DCAF11 enrichment by probe 14 (DCAF11 [2]) | complex formation between BRD2 and DCAF11 (co-immunoprecipitation) (BRD2 and DCAF11) | BRD2 degradation after siRNA-mediated depletion of RBX1 (BRD2; MDA-MB-231 cells, RBX1 siRNA 30 nM, 48 h, 3 μM compound 9, 4 h)
1 |  |  |  | O=C1Nc2ccc(Br)cc2C1=Cc1cc(Br)c(O)c(Br)c1 [Compound 2] | binding is prevented | > 30 µM | did not reduce PDEδ protein levels | reduced the enrichment |  | 
2 | potent degradation activity | almost no hook effect | BRD2 depletion was also observed | Cc1sc2c(c1C)C(c1ccc(Cl)cc1)=N[C@@H](CC(=O)NCCOCCOCCOCCOCCNC(=O)COc1c(Br)cc(/C=C3\C(=O)Nc4ccc(Br)cc43)cc1Br)c1nnc(C)n1-2 [Compound 9] |  |  |  |  | mediates complex formation between BRD2 and DCAF11 | did not induce degradation of BRD2 anymore
3 | potent degradation activity |  |  | Cc1sc2c(c1C)C(c1ccc(Cl)cc1)=NC(CC(=O)NCCOCCOCCOCCOc1c(Br)cc(C=C3C(=O)Nc4ccc(Br)cc43)cc1Br)c1nnc(C)n1-2 (stereo not shown) [Compound 10] |  |  |  |  |  | 
